Assay [1] relates to NCI-H295R. The assay can be described thus: IC50 (antiproliferative, ATP content). As to conditions: 48 h.
The subject of assay [2] is NCI-H295R. The assay can be described thus: maximal response (efficacy) relative to DMSO (0%) and doxorubicin (-100%); higher = less growth inhibition. To be noted: 48 h.

Several values for one entry are separate records, joined by “and”; a condition that tells them apart may be missing. Equal entries are not always repeated.

The compound `CC(C)=CCOc1ccc(C=CC(=O)c2ccc(OCC=C(C)C)cc2OCC(=O)O)cc1` returned an IC50 in assay [1] of 23.7 µM. Besides, in assay [2], the maximal response was -145%.
Compound `CCCCCCCCCCC[C@@H](C[C@@H]1OC(=O)[C@H]1CCCCCC)OC(=O)C(CC(C)C)NC=O` (stereo not given in full) returned an IC50 in assay [1] of 9.44 µM. For the same compound, in assay [2], the maximal response is -66.3%.
In turn, `C[C@@H](C)[C@H]1C3=C(C=C(F)C=C3)CC[C@@](OC(COC)=O)1CCN(C)CCCC4=NC2=C(N4)C=CC=C2.Cl.Cl` returned an IC50 in assay [1] of 10.6 µM. For the same compound, in assay [2], the maximal response is -126%.
For the compound `O[C@]([C@@]([H])2CC3)(CC[C@@H]4[C@@](CO5)=CC5=O)[C@]4(C)C[C@@H](O)[C@]2([H])[C@]1(CO)[C@@]3(O)C[C@@H](O[C@H]6[C@H](O)[C@H](O)[C@@H](O)[C@H](C)O6)C[C@H]1O`, the IC50 in assay [1] is 0.0841 µM and 0.106 µM. Further, the maximal response in assay [2] was -111% and -116%.
For the compound `O.O.[Na+].[Na+].[O]=[Cr](=[O])([O-])[O][Cr](=[O])(=[O])[O-]`, the IC50 in assay [1] was found to be 11.9 µM. For the same compound, the maximal response in assay [2] is -147%.
The compound `CS(=O)(=O)O.Cc1ccc(NC(=O)c2ccc(CN3CCN(C)CC3)cc2)cc1Nc1nccc(-c2cccnc2)n1` had an IC50 in assay [1] of 18.8 µM. For the same compound, the maximal response in assay [2] is -61.7%.
`O=C\1OC/C(=C/1)[C@H]2CC[C@@]9(O)[C@]2(C)[C@H](O)C[C@H]3[C@H]9CC[C@@H]4C[C@H](CC[C@]34C)O[C@@H]8O[C@H](C)[C@@H](O[C@@H]7O[C@H](C)[C@@H](O[C@@H]6O[C@H](C)[C@@H](O[C@@H]5O[C@H](CO)[C@@H](O)[C@H](O)[C@H]5O)[C@@H](O)C6)[C@@H](O)C7)[C@@H](O)C8`: in assay [1], the IC50 is 0.335 µM. Further, in assay [2], the maximal response is -110%.
Compound `COP(=S)(OC)Oc1ccc(Sc2ccc(OP(=S)(OC)OC)cc2)cc1` came in with a half-maximal inhibitory concentration (IC50) in assay [1] of 21.1 µM. Also, the maximal response in assay [2] was -96.4%.
The compound `O=C(Nc1cccc(C(F)(F)F)c1)c1cc(Br)cc(Br)c1O` showed an IC50 in assay [1] of 5.96 µM. Besides, the maximal response in assay [2] was -140%.
The corresponding values for `O=C\1OC/C(=C/1)[C@H]2CC[C@@]8(O)[C@]2(C)[C@H](O)C[C@H]3[C@H]8CC[C@@H]4C[C@H](CC[C@]34C)O[C@@H]7O[C@H](C)[C@@H](O[C@H]6C[C@H](O)[C@H](O[C@H]5C[C@H](O)[C@H](O)[C@@H](C)O5)[C@@H](C)O6)[C@@H](O)C7` are 0.188 µM and -111%.
The corresponding values for `Cc1cc(C2CCCCC2)n(O)c(=O)c1.NCCO` are 0.64 µM and -61.1%.
`COc1ccc(C=CC(=O)c2ccc(OC)cc2OC)cc1` gave an IC50 in assay [1] of 23.7 µM. Further, the maximal response in assay [2] is -117%.
The corresponding values for `CO[C@H](C(=O)[C@@H](O)[C@@H](C)O)[C@@H]1Cc2cc3cc(O[C@H]4C[C@@H](O[C@H]5C[C@@H](O)[C@H](O)[C@@H](C)O5)[C@@H](O)[C@@H](C)O4)c(C)c(O)c3c(O)c2C(=O)[C@H]1O[C@H]1C[C@@H](O[C@H]2C[C@@H](O[C@H]3C[C@](C)(O)[C@H](O)[C@@H](C)O3)[C@H](O)[C@@H](C)O2)[C@H](O)[C@@H](C)O1` are 0.944 µM and -118%.
With `O=c1oc2ccccc2c(O)c1C(CC(O)c1ccc(-c2ccc(Br)cc2)cc1)c1ccccc1` (stereo not given), in assay [1], the IC50 worked out at 9.44 µM. Moreover, the maximal response in assay [2] was -115%.
`CN(C)c1ccc2nc3ccc(N(C)C)cc3[s+]c2c1.[Cl-]` yielded an IC50 in assay [1] of 15 µM. For the same compound, the maximal response in assay [2] was -109%.
The corresponding values for `CC(C)(C)c1cc(O)ccc1O` are 16.8 µM and -139%.
In assay [1], `O=C1C(=O)c2ncccc2-c2cccnc21` showed an IC50 of 3.76 µM. Besides, the maximal response in assay [2] was -63%.
`OC[C@@]([C@@](C[C@@H](C4=C(C(C(C2=C(C=CC=C23)OC)=O)=C(C(O)=C4C5)C3=O)O)O[C@H](O1)C[C@@H]([C@@H]([C@@H]1C)O)N)5O)=O.Cl` gave an IC50 in assay [1] of 11.9 µM. Also, the maximal response in assay [2] is -102%.
On to `COc1cc([C@@H]2c3cc4c(cc3C(O[C@@H]3O[C@@H]5COC(c6cccs6)O[C@H]5[C@H](O)[C@H]3O)C3COC(=O)[C@@H]32)OCO4)cc(OC)c1O` (stereo not given in full), for which the IC50 in assay [1] turned out to be 8.41 µM. Besides, in assay [2], the maximal response was -94.9%.
`C[n+]1cc2c3c(ccc2c2ccc4cc5c(cc4c21)OCO5)OCO3`: in assay [1], the IC50 amounted to 4.73 µM. Moreover, in assay [2], the maximal response is -119%.
Regarding `CN(Cc1cnc2nc(N)nc(N)c2n1)c1ccc(C(=O)N[C@@H](CCC(=O)O)C(=O)O)cc1`, the IC50 in assay [1] is 0.0188 µM. Moreover, the maximal response in assay [2] is -74.9%.
Consider `[K+].[K+].[O]=[Cr](=[O])([O-])[O][Cr](=[O])(=[O])[O-]`, for which the IC50 in assay [1] was determined as 11.9 µM. Further, the maximal response in assay [2] was -166%.
In turn, `[C@@]82([C@@]([C@@H](/C1=C/C(=O)OC1)CC2)(CC[C@@H]9[C@]7(CCC(O[C@@H]3O[C@@H]([C@H]([C@H](C3)O)O[C@@H]6O[C@@H]([C@@H](O[C@@H]5O[C@@H]([C@@H](O[C@H]4[C@@H]([C@@H](O)[C@@H]([C@H](O4)CO)O)O)[C@H](C5)OC(=O)C)C)[C@H](C6)O)C)C)C[C@H]7CC[C@@H]89)C)C)O` (stereo not given in full) had an IC50 in assay [1] of 0.188 µM. The maximal response in assay [2] was -114%.
The corresponding values for `O=[N+]([O-])c1ccc(O)c2ncccc12` are 3.35 µM and -85.4%.
In turn, `CC(C)C[C@@H]1NC(=O)[C@H](CCCN)NC(=O)[C@H](C(C)C)NC(=O)[C@@H]2CCCN2C(=O)[C@@H](Cc2ccccc2)NC(=O)[C@H](CC(C)C)NC(=O)[C@H](CCCN)NC(=O)[C@H](C(C)C)NC(=O)[C@@H]2CCCN2C(=O)[C@@H](Cc2ccccc2)NC1=O` displayed an IC50 in assay [1] of 8.41 µM. For the same compound, in assay [2], the maximal response is -121%.
In the case of `CC(=O)Nc1ccc(NC(=S)NC(=O)c2ccc(C(C)(C)C)cc2)cc1`, the IC50 in assay [1] came out at 21.1 µM. Besides, the maximal response in assay [2] is -151%.
`CCCCCCCCN[C@H](C)C(O)c1ccc(SC(C)C)cc1` (stereo not given in full): the concentration for half-maximal inhibition (IC50) in assay [1] came to 21.1 µM. In addition, in assay [2], the maximal response was -137%.
In assay [1], `C[C@H]1CC[C@]2(NC1)O[C@H]1C[C@H]3[C@@H]4CC[C@H]5C[C@@H](O[C@@H]6O[C@H](CO)[C@H](O[C@@H]7O[C@H](CO)[C@@H](O)[C@H](O[C@@H]8OC[C@@H](O)[C@H](O)[C@H]8O)[C@H]7O[C@@H]7O[C@H](CO)[C@@H](O)[C@H](O)[C@H]7O)[C@H](O)[C@H]6O)CC[C@]5(C)[C@H]4CC[C@]3(C)[C@H]1[C@@H]2C` gave a half-maximal inhibitory concentration (IC50) of 1.88 µM. For the same compound, the maximal response in assay [2] was -127%.
For `CCOc1nc2cccc(C(=O)O)c2n1Cc1ccc(-c2ccccc2-c2nnn[nH]2)cc1`, the IC50 in assay [1] worked out at 15 µM. Moreover, the maximal response in assay [2] was -145%.
Turning to `CCN1C(=CC=Cc2sc3ccccc3[n+]2CC)Sc2ccccc21.[I-]`, the IC50 in assay [1] amounted to 15 µM. In addition, the maximal response in assay [2] is -149%.
As to `CC[C@@H](C(=O)[C@@H](C)[C@@H](O)[C@H](C)[C@@H]1O[C@@H]([C@@H](CC)C(=O)[O-])CC[C@@H]1C)[C@H]1O[C@]2(C=C[C@@H](O)[C@]3(CC[C@@](C)([C@H]4CC[C@](O)(CC)[C@H](C)O4)O3)O2)[C@H](C)C[C@@H]1C.[Na+]`, the IC50 in assay [1] turned out to be 13.3 µM. The maximal response in assay [2] was -80.1%.
In assay [1], `O=C1OCCN1/N=C/c1ccc([N+](=O)[O-])o1` displayed an IC50 of 16.8 µM. Further, the maximal response in assay [2] is -72.7%.
Take `CC[C@@]1(O)C(=O)OCc2c1cc1n(c2=O)Cc2cc3c([N+](=O)[O-])cccc3nc2-1`: the IC50 in assay [1] came out at 16.8 µM. Moreover, the maximal response in assay [2] is -91.1%.
On to `Cl.O=C1CSC2(CCN(CCCN3c4ccccc4Sc4ccc(Cl)cc43)CC2)N1`, for which the IC50 in assay [1] came to 21.1 µM. Moreover, the maximal response in assay [2] was -136%.
The corresponding values for `CC(=O)[C@]1(O)Cc2c(O)c3c(c(O)c2[C@@H](O[C@H]2C[C@H](N)[C@H](O)[C@H](C)O2)C1)C(=O)c1ccccc1C3=O.Cl` are 1.68 µM and -121%.
Turning to `[C@@]32([C@@]([C@@H](/C1=C/C(=O)OC1)CC2)([C@H](O)C[C@H]4[C@H]3CC[C@H]9[C@@]4(CC[C@H](O[C@@H]5O[C@@H]([C@H]([C@H](C5)O)O[C@@H]8O[C@@H]([C@@H](O[C@@H]7O[C@@H]([C@@H](O[C@H]6[C@@H]([C@@H](O)[C@@H]([C@H](O6)CO)O)O)[C@H](C7)OC(=O)C)C)C(C8)O)C)C)C9)C)C)O` (stereo not given in full), in assay [1], the IC50 came to 0.299 µM. For the same compound, in assay [2], the maximal response was -118%.
The corresponding values for `Cc1cc2c(C(C)C)c(O)c(O)c(C=O)c2c(O)c1-c1c(C)cc2c(C(C)C)c(O)c(O)c(C=O)c2c1O` are 10.6 µM and -127%.
Consider `Oc1cccc[c]1[Hg][Cl]`, for which, in assay [1], the IC50 was 2.66 µM. The maximal response in assay [2] is -130%.
For `Nc1nc(N)c2nc(CNc3ccc(C(=O)N[C@@H](CCC(=O)O)C(=O)O)cc3)cnc2n1`, in assay [1], the IC50 amounted to 8.41 µM. Besides, the maximal response in assay [2] was -79.1%.
The compound `CCN(CC)CCCN(c1ccccc1)C1Cc2ccccc2C1.Cl` returned an IC50 in assay [1] of 16.8 µM. Moreover, the maximal response in assay [2] is -138%.
In the case of `Oc1c(I)cc(I)c2cccnc12`, in assay [1], the IC50 is 5.31 µM. Besides, in assay [2], the maximal response is -82.7%.
Turning to `COc1cc(-c2ccc(-[n+]3nc(-c4ccccc4)nn3-c3ccc([N+](=O)[O-])cc3)c(OC)c2)ccc1-[n+]1nc(-c2ccccc2)nn1-c1ccc([N+](=O)[O-])cc1.[Cl-].[Cl-]`, in assay [1], the IC50 was found to be 10.6 µM. Also, in assay [2], the maximal response was -132%.
Compound `Cc1cc(O)c2ccccc2c1O` registered an IC50 in assay [1] of 21.1 µM. In addition, the maximal response in assay [2] is -137%.
On to `O=c1c(-c2ccccc2)c1-c1ccccc1`, for which the IC50 in assay [1] amounted to 18.8 µM. Further, the maximal response in assay [2] is -142%.
Consider `O=C(OC[C@H]1O[C@@H](OC(=O)c2cc(O)c(O)c(OC(=O)c3cc(O)c(O)c(O)c3)c2)[C@H](OC(=O)c2cc(O)c(O)c(OC(=O)c3cc(O)c(O)c(O)c3)c2)[C@@H](OC(=O)c2cc(O)c(O)c(OC(=O)c3cc(O)c(O)c(O)c3)c2)[C@@H]1OC(=O)c1cc(O)c(O)c(OC(=O)c2cc(O)c(O)c(O)c2)c1)c1cc(O)c(O)c(OC(=O)c2cc(O)c(O)c(O)c2)c1`, for which, in assay [1], the IC50 was 7.5 µM. The maximal response in assay [2] is -122%.

The record behind these values is the supplement of paper PMC3493320.
